# Data from patent US9610291B2, “Treatment of respiratory depression” (NUMEDICUS LIMITED, priority 2012, dated 2017).
# Legend:
# [1] = system: conscious rats; test: Opiate-induced respiratory depression; whole-body plethysmography in conscious rats; type: in vivo; conditions: for increase in the respiratory activity: before morphine
# Procedure: Whole-body plethysmography is used to assess respiratory rate (fR, in breaths per minute) and tidal volume (VT, in microliters per gram) in conscious rats. Animals are placed in a recording chamber (˜700 ml) flushed continuously with a humidified mixture of 79% nitrogen and 21% oxygen (temperature 22-24° C.). Level of carbon dioxide (CO2) in the chamber is monitored online using a fast-response CO2 analyser. Animals are allowed ˜40 min to acclimatize to the chamber environment at normoxia-normocapnia (21% oxygen, 79% nitrogen and <0.3% CO2) before measurements of baseline ventilation are taken.
# Respiratory depression is induced in conscious rats by intramuscular (10 mg/kg) administration of morphine.
# Data are acquired using Power1401 interface, saved and analyzed off-line using Spike2 software (CED Limited, Cambridge, UK).
# Parameters measured included fR—respiratory rate (in breaths per minute); VT—tidal volume (in microliters per gram of body weight); VE—minute ventilation fR×VT (in microliters per gram of body weight per minute).
# The data were analysed by ANOVA followed by the Tukey-Kramer's post hoc test, Student's t-test, or non-parametric Wilcoxon-Mann-Whitney U test, as appropriate. Data are presented as means±SEM.
# [2] = system: Methyl-CpG-binding protein 2 (Mecp) null mice; test: Rett's syndrome model; plethysmography in Mecp2 null mice; type: in vivo; conditions: tianeptine 10 mg/kg i.p. in saline, 5.6 Hz before treatment, p=0.037, paired t test
# Procedure: Methyl-CpG-binding protein 2 (Mecp) null mice were of the B6.129P2(C)-Mecp2^tm1.1Bird strain. Mice were produced and genotyped using published methods (Miralvès J, Magdeleine E, Joly E. Design of an improved set of oligonucleotide primers for genotyping MeCP2^tm1.1Bird KO mice by PCR. Mol Neurodegener. 2007; 2:16; Bissonnette J M, Knopp S J. Separate respiratory phenotypes in methyl-CpG-binding protein 2 (Mecp2) deficient mice. Pediatr Res. 2006; 59:513-518).
# Breathing was recorded over a 60 min control period following drug treatment in the same way as for the respiratory depression experiments, with the same equipment and software. After the recording sessions, mice were euthanized with CO2.
structure (smiles),measurement,setting,value
"CN1c2ccccc2C(NCCCCCCC(=O)O)c2ccc(Cl)cc2S1(=O)=O (centres unmarked) [tianeptine, 7-[(3-chloro-6,11-dihydro-6-methyl-dibenzo[c,f][1,2]thiazepin-11-yl)amino]heptanoic acid S,S-dioxide]",increase in the respiratory activity,"[1]; tianeptine 2 mg/kg ip, 5 min after administration, conscious rats, p<0.05",~30%
same,morphine-induced respiratory depression,"[1]; tianeptine 2 mg/kg ip, morphine 10 mg/kg intramuscular 5 minutes after tianeptine, conscious rats",appears to prevent morphine-induced respiratory depression
same,increase in the respiratory activity,"[1]; tianeptine 10 mg/kg, rats",not observed
same,morphine-induced respiratory depression,"[1]; tianeptine 10 mg/kg, followed by morphine 10 mg/kg intramuscular, rats",prevented
same,peak dominant frequency (respiratory frequency pattern) after drug treatment,[2],4.8 Hz
